Measured values published in patent US20040038369A1, “Airway-specific trypsin-like enzymes and method of using the same” (priority 2000, published 2004).

Key:
[1] = test system: normal human airway epithelial cells; experiment: Calcium influx in normal human airway epithelial cells; type: cell-based; details: AST 2 units/mL; trypsin 10 to 100 units/mL; SFLLRNamide 100 μM
Procedure: The Ca^2+ influx due to the AST was examined with confluent normal epithelial cells adhered to three 10 cm dishes (purchased from BioWhittaker Corp.). The cells were peeled with a 10 mM EDTA/HEPES-Tyrode buffer solution for 10 minutes, recovered by a centrifugal treatment at 800 rpm at room temperature for 5 minutes, and then resuspended in 5 mL of HEPES-Tyrode buffer solution-Ca^2+ (−) pH 7.4. The recovered cells (about 1.2×10^6 cells) were suspended in 5 mL of HEPES-Tyrode buffer solution (1 μg/mL, containing Fura2-AM) to load the Fura2-AM to the cells at 37° C. for one hour. The cells were recovered by a centrifugal treatment at 800 rpm at room temperature for 5 minutes, twice washed with HEPES-Tyrode buffer solution-Ca^2+ (−) pH 7.4, and then resuspended in […] of HEPES-Tyrode buffer solution-Ca^2+ (−) pH 7.4. The cell suspension was mixed with 5 μL of 1M CaCl2 to give a final concentration of 1 mM CaCl2, and then incubated in a shaded state at room temperature for 5 minutes. The prepared Fura2-AM-loaded infected cells were dispensed into a 96 well plate in a volume of 100 μL/well, further subjected to the dispensation of HEPES-Tyrode buffer solution-Ca^2+ (+) pH 7.4 in a volume of 80 μL/well, and then assayed with Fluorescence Drug Screening System (Hamamatsu Photonics Co.). […]

HBEGF (Δ TM)-ALP = experiment: Cleavage of HBEGF (Δ TM)-ALP due to HAST (western blotting); type: biochemical, human; details: recombinant HAST, 37° C. overnight
Procedure: 293EBNA cell strain was sowed in a density of 9×10^6 cells/10 cm dish, cultured overnight, and then transfected with the human HBEGF-expressing plasmid: pEF9-HBEGF (Δ TM)-ALP prepared in 1). 12 μg of the pEF9-HBEGF (Δ TM)-ALP was subjected to a lipofection with 75 μL of Lipofectamine 2000 (produced by GIBCO-BRL). The lipofection was carried out according to an appended manual. 72 hour later, the cells were peeled with a pipette, and then centrifuged at 3000 rpm at 4° C. for five minutes. The lysate was dissolved in 12 mL of M-PER (produced by PIERCE Corp.), subjected to an SDS-polyacrylamide gel electrophoresis under a non-reducing condition, and then blotted on a nitrocellulose membrane (produced by BIO-RAD Corp.).
The product blotted on the nitrocellulose membrane was treated with 3% BSA-containing PBS at 4° C. overnight and then reacted with the anti-human HB-EGF antibody (produced by GENZYME Corp., an antibody recognizing an EGFR-binding site) diluted with 1% BSA-containing PBS in a concentration of 1 μg/mL, at room temperature for one hour. The nitrocellulose membrane was washed with 0.05% Tween 20-containing PBS three times, and then reacted with Swine Anti-Goat Ig's-ALP antibody (produced by BIOSOURCE Corp.) diluted with 1% BSA-containing PBS in a concentration of 1 μg/mL at room temperature for one hour. […]

## HAST: human airway-specific trypsin-like enzyme; propeptide moiety bound to trypsin-like protein moiety via a disulfide bond
[1]
  Ca2+ influx: observed
HBEGF (Δ TM)-ALP
  band reactive with the anti-human HB-EGF antibody: shifted to a low molecular weight
